Test results as given in PMC4404097, “The Inhibitory Effects of Ca^2+ Channel Blocker Nifedipine on Rat Kv2.1 Potassium Channels” (PLoS ONE, 2015).
Residue numbers refer to the chain shown, from its start.

Assays:
rat Kv2.1 [1] = molecular target: T1, rat Kv2.1 (Rattus norvegicus, UniProt P15387, Y380R); experiment: whole-cell patch clamp, Hill fit of concentration-response; format: cell-based
T1 construct: gene Kcnb1; rat Kv2.1 subcloned in pEYFP-N1 (XhoI/EcoRI); homotetramer
T1 sequence (P15387 1-857 Y380R): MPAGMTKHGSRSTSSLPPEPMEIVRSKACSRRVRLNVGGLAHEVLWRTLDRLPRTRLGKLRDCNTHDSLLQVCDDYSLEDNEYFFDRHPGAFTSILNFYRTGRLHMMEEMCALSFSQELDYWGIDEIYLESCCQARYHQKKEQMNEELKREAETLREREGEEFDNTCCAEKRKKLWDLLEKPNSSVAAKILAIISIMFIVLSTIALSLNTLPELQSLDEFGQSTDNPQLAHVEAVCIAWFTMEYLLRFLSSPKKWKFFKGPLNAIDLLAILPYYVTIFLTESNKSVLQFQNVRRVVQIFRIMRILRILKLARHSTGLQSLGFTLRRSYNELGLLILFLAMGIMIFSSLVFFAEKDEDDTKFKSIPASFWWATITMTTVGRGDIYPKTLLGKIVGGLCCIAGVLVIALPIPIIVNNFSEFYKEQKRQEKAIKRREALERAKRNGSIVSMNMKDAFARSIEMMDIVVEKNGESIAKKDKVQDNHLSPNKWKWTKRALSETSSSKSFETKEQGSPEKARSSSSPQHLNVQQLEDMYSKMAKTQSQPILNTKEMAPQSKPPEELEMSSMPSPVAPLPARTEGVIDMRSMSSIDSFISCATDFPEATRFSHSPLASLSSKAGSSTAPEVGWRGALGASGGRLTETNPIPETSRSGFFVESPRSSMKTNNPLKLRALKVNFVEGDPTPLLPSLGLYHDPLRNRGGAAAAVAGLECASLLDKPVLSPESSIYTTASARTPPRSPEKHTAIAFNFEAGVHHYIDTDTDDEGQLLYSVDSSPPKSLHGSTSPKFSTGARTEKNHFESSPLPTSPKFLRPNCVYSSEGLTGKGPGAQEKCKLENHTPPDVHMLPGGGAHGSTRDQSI

rat Kv2.1 [2] = molecular target: T2, rat Kv2.1 (Rattus norvegicus, UniProt P15387); experiment: as above; format: cell-based
T2 construct: gene Kcnb1; rat Kv2.1 subcloned in pEYFP-N1 (XhoI/EcoRI); homotetramer
T2 sequence (P15387 1-857): T1 sequence (P15387 1-857 Y380R) with R380Y

COC(=O)C1=C(C)NC(C)=C(C(=O)OC)C1c1ccccc1[N+](=O)[O-] [nifedipine]
IC50 (rat Kv2.1 [1]): 15.2 ± 1.3 µM
IC50 (rat Kv2.1 [2]): 37.5 ± 5.7 µM
